Structures are written as SMILES.

As a reminder, the melting point is the temperature, or range, at which the solid turns liquid. The compound `CC12CCC(=O)CC1CCC1C2CCC2(C)C(OC(=O)CCl)CCC12` (stereo not given) returned a melting point of 135 to 136 °C.

The compound `Cc1ccc(Sc2cccc(-c3nc(=O)c4ccccc4s3)n2)cc1` had a melting point of 177 to 178 °C.

Consider `COc1ccc(C(=O)Nc2ccc(C)c(Cl)c2)cc1N`, for which the melting point lay within 153 to 157 °C.

`CCCC(=O)CCCC(=O)CCCSCCCC(C)(C)C(=O)OCC` gave a melting point of 104 to 105 °C.

On to `COC(c1nnc2n1-c1ccc(Cl)cc1C(c1ccccc1)=NC2)C1COC(C)(C)O1` (stereo not given), for which the melting point lay in the range of 130 to 134 °C.

Compound `Cc1nc2cc(C#N)cc(C#N)c2[nH]1` gave a melting point of 290 to 292 °C.

`CS(=O)(=O)Nn1c(=O)[nH]c2cc(C(F)(F)F)c(-n3cnc(Br)c3)cc2c1=O` returned a melting point of 229 to 233 °C.

With `CCCCOC(=O)[C@H]1CN(c2ccc3c(c2)sc(=O)n3C)C(=O)O1`, the melting point is 85 to 87 °C.

`FC(F)(F)c1ccc(-c2cc(C(F)(F)F)c(Br)nn2)cc1`: the melting point fell in the range of 123 to 125 °C.

Consider `COC(=O)c1ccccc1S(=O)(=O)NC(=O)n1nc(C)n(C2CCCC2)c1=O`, for which the melting point was 146 °C.

In turn, `Cc1ccnc(Nc2nc(-c3ccc(-c4ccccn4)s3)cs2)c1` registered a melting point of 185 to 187 °C.

As to `N#CCNC(=O)C1(NC(=O)c2ccc(CBr)cc2)CCCCC1`, the melting point fell in the range of 194 to 196 °C.

With `Cn1cc(-c2cc3cccnc3[nH]2)c2cc(C(=O)NCCN3CCOCC3)ccc21`, the melting point is 268 to 270 °C.

With `c1ccc(-c2cccc3[nH]c4c(c23)CCNCC4)cc1`, the melting point is > 250 °C.

In the case of `CCONC(=O)n1nc(Oc2c(Cl)cc(C(F)(F)F)cc2Cl)cc1C`, the melting point lay within 105 to 107 °C.

`OCCc1c[nH]c2ccc(F)cc12` came in with a melting point of 59 to 61 °C.

On to `COc1cc2c(cc1Nc1ncc(Cl)c(Nc3ccccc3S(=O)(=O)N(C)C)n1)CCN(CC(C)O)CC2` (stereo not given), for which the melting point was in the range of 183 to 185 °C.

The compound `COc1ccc2c(c1)c(C(=O)C(=O)NC1=CC(=O)OC1)cn2Cc1ccc(Cl)cc1` came in with a melting point of 238 to 240 °C.

For the compound `COc1nnc(Cl)c(-c2c(F)cc(F)cc2F)c1-c1ccc(Br)cc1`, the melting point was in the range of 113 to 119 °C.

`CCCC1CCC(C2CC3(C2)CC(C(F)(F)Oc2cc(F)c(F)c(F)c2)C3)CC1` (stereo not given) registered a melting point of 43 °C.

Regarding `CCC(=O)/C=C/c1c([N+](=O)[O-])ccc2c1OC(COS(=O)(=O)c1ccc(C)cc1)CO2` (stereo not given), the melting point stood at 114 °C.

Consider `CC(C)c1nn(-c2ccc(C(F)(F)F)cn2)cc1CCCCO`, for which the melting point fell in the range of 67 to 68 °C.

On to `Fc1cccc(F)c1-c1nn(-c2ccccc2C(F)(F)F)c(=S)o1`, for which the melting point fell in the range of 128 to 130 °C.

With `N#CC(C(=O)Nc1ccccc1)C(=O)c1nn(-c2ccccc2)c2c1COc1ccc(Cl)cc1-2` (stereo not given), the melting point is 243 to 246 °C.

For `COc1cc2c(C=O)c[nH]c2c2c1OCCC2=O`, the melting point amounted to 236 °C.

The compound `CCCCCCCCCCCCCCCCOc1cc(C(=O)O)c(O)c2ccccc12` gave a melting point of 121 to 124 °C.

`Cc1c(SCCCn2c([N+](=O)[O-])cnc2C)ccnc1CSc1ncccn1` had a melting point of 141 to 143 °C.

With `CCCC(O)P(=O)(O)OCCCN` (stereo not given), the melting point came to 188 °C.

Regarding `OCc1ncc2n1CCCC2`, the melting point is 188 to 199 °C.

`Cn1cnc(S(=O)(=O)N2CCC3(CC2)CSC2=C(O3)c3ccccc3C(=O)C2=O)c1` came in with a melting point of 256 to 257 °C.

As to `COc1ccc(OCC(=O)CS(=O)(=O)C(c2ccc(Cl)cc2)c2ccc(Cl)cc2)cc1`, the melting point is 116 to 117 °C.

Turning to `Clc1ccc(-c2n[nH]c3cc4ccccc4cc23)cc1`, the melting point turned out to be 192 °C.

Take `CCOC(=O)CNS(=O)(=O)c1sccc1C=O`: the melting point fell in the range of 74 to 76 °C.

The compound `O=C(c1cccc(C(F)(F)F)c1)c1cc2c(F)ccc(Br)c2o1` registered a melting point of 114 to 115 °C.

Compound `CCCCCOc1ccc(C#N)cc1-c1cc(C(=N)Nc2cccc(C(F)(F)F)c2)ccc1OCCCCC` returned a melting point of 74 to 75 °C.

On to `Cc1cccnc1NC(N)=S`, for which the melting point was in the range of 152 to 154 °C.

In turn, `O=C(O)c1ccc(-n2cc[nH]c2=S)cc1` showed a melting point of 194 to 196 °C.

The compound `CC(C)(C)OC(=O)COc1ccccc1C=O` returned a melting point of 68.6 °C.

With `COC(COC(C)=O)C1=CCC2C3CCC4=CC(=O)CCC4(C)C3CCC12C` (stereo not given), the melting point was in the range of 115 to 157 °C.

In turn, `O=C(c1ccccc1)c1cccc2c(Cl)c[nH]c12` came in with a melting point of 145 to 149 °C.

Consider `COc1ccccc1-n1c(-c2ccc(C=C(C#N)C#N)s2)ccc1-c1ccc(C(C#N)=C(C#N)C#N)s1`, for which the melting point was > 300 °C.

The compound `COC(=O)C1=C(C)NC(CC(=O)N2CCN(C3CC4CCC(C3)N4Cc3ccccc3OC)CC2)=C(C(=O)OC)C1c1c(Cl)cccc1Cl` (stereo not given) returned a melting point of 205 to 213 °C.

In turn, `COc1ccccc1-n1cnc2c(C(N)=O)nc(Nc3cccc(O)c3)nc21` registered a melting point of 155 to 157 °C.

`COc1ccccc1Oc1c(Cl)nc(-c2cccc(OCc3ccccc3)c2)nc1Cl`: the melting point is 127 to 132 °C.

For `O=C1c2ccccc2C(=O)N1Cc1ncc(/C=C/C(c2cc(Cl)c(Cl)c(Cl)c2)C(F)(F)F)cc1Cl` (stereo not given), the melting point was 79 to 82 °C.

`CC(=O)c1ccc(OCCCCOc2ccccc2)cc1` gave a melting point of 104 to 106 °C.

Take `Cc1nc2sccn2c1C1=NNC(=O)CO1`: the melting point fell in the range of 274 to 275 °C.

Compound `COC(=O)COc1cccc2c1CCC(CC(=O)CBr)C2` (stereo not given) came in with a melting point of 77 to 78 °C.

`CN1C(=O)C(CCCCNC(=O)OCc2ccccc2)NC1=S` (stereo not given) registered a melting point of 135 °C.

For `CCOc1nn(C(=O)NS(=O)(=O)c2c(C(=O)OC)csc2C)c(=O)n1C`, the melting point stood at 163 °C.

On to `CCOC(=O)c1sc(C)nc1SC(=O)N(C)C`, for which the melting point was in the range of 84.5 to 85.5 °C.

Regarding `CCCOc1ncc(NCC(=O)OC)cc1-c1nc2c(CCC)nn(C)c2c(=O)[nH]1`, the melting point is 175 °C.

`CC1(C)CCC23CCC4(C)C(CCC5C6(C)CCC(O)C(C)(C)C6CCC54C)C2C1OC3` (stereo not given) gave a melting point of 268 to 269 °C.

The compound `CN1CC(=O)Nc2ccc([N+](=O)[O-])cc2C1=O` came in with a melting point of 250 to 252 °C.

`CN(C)C(=O)NCCc1cccc(-c2nc(=O)c3ccccc3s2)n1` displayed a melting point of 190 to 191 °C.

Regarding `O=C(c1ccc([N+](=O)[O-])cc1)N1CCN(CCc2ccc(Cl)cc2)CC1`, the melting point was 109 to 110 °C.

The compound `CCOCc1nc2c(N)nc3ccccc3c2n1Cc1cc(C)no1` had a melting point of 178 to 180 °C.

In the case of `CC(C)(O)Cn1c(CON)nc2c(N)nc3ccccc3c21`, the melting point fell in the range of 178 to 179 °C.

`CC(=O)OC1CSC(Oc2cccc3cc(C(C)=O)oc23)C(OC(C)=O)C1OC(C)=O` (stereo not given) showed a melting point of 208 to 209 °C.

In the case of `ClCCCc1nc2ccccn2n1`, the melting point lay within 56.5 to 57 °C.

`CCCn1cc2c(C3C(=O)Nc4ccc(Br)cc43)nc(NCCc3ccccn3)nc2n1` (stereo not given): the melting point is 283 to 291 °C.

In the case of `COc1cc2cc(-c3ccc(OCC(O)CNC(C)C)cc3)n(C)c(=O)c2cc1OC` (stereo not given), the melting point was in the range of 206 to 207 °C.

Turning to `O=C(O)c1cccc(-c2ccc3c(c2)C(c2ccc(Cl)cc2Cl)CCO3)c1` (stereo not given), the melting point is 223 to 224 °C.

`NC(=O)N1C(=O)C(C(=O)c2ccoc2)c2ncc(Cl)cc21` (stereo not given): the melting point was > 250 °C.

With `COc1c2c(c(OC)c(OC)c1OC)CCC(CCn1nnc3ccccc31)CC2`, the melting point was 99 to 101 °C.

The compound `Nc1ccnc(N2CCN(c3nc4cccccc-4n3)CC2)n1` yielded a melting point of 205 to 208 °C.

As to `CCOC(=O)C(=O)Nc1cc(OC)c(OC)cc1[N+](=O)[O-]`, the melting point came out at 163 °C.

With `CC1CC(=O)NN=C1c1ccc(Nc2nc(=O)c3ccccc3[nH]2)cc1` (stereo not given), the melting point fell in the range of 313 to 319 °C.

The compound `COc1ccc(F)cc1C(C)(C)CC(O)(CN1CC(C)NC(C)C1)C(F)(F)F` (stereo not given) showed a melting point of 61 to 62 °C.

The compound `C=CCOc1ncc(F)c(N(N)C(=O)c2cccc(C)c2)n1` displayed a melting point of 181 to 185 °C.

In turn, `Nc1ncccc1C(=O)NCCCOc1ccc(-c2ccc(=O)[nH]n2)cc1` had a melting point of 232 to 234 °C.

As to `Nc1ccc(-c2cccnc2)c(C(F)(F)F)c1`, the melting point lay within 92 to 93 °C.

Compound `CCCc1c(OC(C)c2cccc(C(=O)O)c2)ccc(C(C)=O)c1O` (stereo not given) showed a melting point of 101 to 103 °C.

`Cc1nc(N)nc(N)c1-c1cc(Br)ccc1Cl` returned a melting point of 212 to 216 °C.

For the compound `Cc1cc(C)c2c(n1)N(C(=O)Cl)c1ccccc1N(C)C2=O`, the melting point fell in the range of 205 to 207 °C.

As for `COC1(OCCc2nc(C(C)C)c(Sc3cc(Cl)cc(Cl)c3)n2C)CCCCCCC1`, the melting point lay in the range of 54 to 56 °C.

Compound `CC12CC=C3C(CCC4(CCSc5ncccn5)CC(O)CCC34C)C1CCC2O` (stereo not given) came in with a melting point of 156 °C.

Compound `COC(=O)CCCCCCCCCCCCc1ccccc1` showed a melting point of 30.5 to 31.5 °C.

Regarding `CC1(C)CCC(C)(C)c2cc3c(cc21)OCC3(C)c1cc(CO)cs1` (stereo not given), the melting point was found to be 127 °C.

In the case of `CCOC(=O)COc1ccc2c(-c3ccccc3F)noc2c1Br`, the melting point lay in the range of 130 to 131 °C.

Turning to `Cc1ccc(C)n1C1=CC2=C(CC1)CCc1[nH]c(=O)c(=O)n(OCC(=O)O)c12`, the melting point was > 260 °C.

`Cc1cn(N=Cc2cccnc2)c(=O)[nH]1` returned a melting point of 200 to 202 °C.

In turn, `COc1oc(-c2ccc(NS(=O)(=O)c3sc4ccc(F)cc4c3C)c(S(C)(=O)=O)c2)nc1C` displayed a melting point of 232 to 233 °C.

As for `O=C(Nc1ccc2c(c1)CSCC2)OCc1ccccc1`, the melting point lay within 109 to 111 °C.

As for `CN(C)c1ccc2c(c1)O/C(=C1/Oc3cc(N(C)C)ccc3C1=O)C2=O`, the melting point is > 320 °C.

The compound `CCOP(=O)(Cc1ccc(NC(=O)CCCc2cnoc2-c2ccccc2)cc1)OCC` gave a melting point of 128 to 129 °C.

Turning to `CCN(CC)CC(O)CNC(=O)c1c(OC)c2ccccc2n1-c1ccccc1` (stereo not given), the melting point fell in the range of 148 to 150 °C.

As to `Cc1cc(C)cc(OCC(C)O)c1` (stereo not given), the melting point lay in the range of 48.7 to 49.5 °C.

In the case of `CC(C)(C)c1cc(SCc2ccc(C#N)cc2)cc(C(C)(C)C)c1O`, the melting point fell in the range of 143 to 145 °C.

The compound `Cc1cc(C=CC#N)cc(C(=O)c2c(C(C)C)c(=O)[nH]c(=O)n2CC2CC2)c1` yielded a melting point of 225 to 226 °C.

(Values after a melting point compilation (Tetko et al.; mined from patent text by program, amines drawn as free bases though some values may be those of a salt).)
